This test deals with F508delCFTR (Homo sapiens, UniProt P13569, DEL508-508). Put plainly: Cell Surface Expression-Horse Radish Peroxidase (CSE-HRP) assay. It is filed as cell-based. Also on record: expressed in transfected cells; host or cells: CFBE41o- human lung derived epithelial cell line, doxycycline-inducible. Conditions: CFBE4lo-F508delCFTR-HRP cells; for pEC50: 18-24 hours at 33° C., 8-point curve, highest concentration 20 μM, luminescence readout; for Emax: maximum % activity at any tested concentration, normalized to on-plate positive control (3 μM Example 1). In outline:
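Following 18-24 h compound exposure at 33° C. Expression was doxycycline-induced beforehand. % activity versus DMSO and a 3 μM corrector control gave maximum activity and EC50 from a variable-Hill sigmoidal fit.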

pEC50: −log10 of the molar value.

Chain of F508delCFTR (P13569 with tags, fused parts or gaps DEL508-508): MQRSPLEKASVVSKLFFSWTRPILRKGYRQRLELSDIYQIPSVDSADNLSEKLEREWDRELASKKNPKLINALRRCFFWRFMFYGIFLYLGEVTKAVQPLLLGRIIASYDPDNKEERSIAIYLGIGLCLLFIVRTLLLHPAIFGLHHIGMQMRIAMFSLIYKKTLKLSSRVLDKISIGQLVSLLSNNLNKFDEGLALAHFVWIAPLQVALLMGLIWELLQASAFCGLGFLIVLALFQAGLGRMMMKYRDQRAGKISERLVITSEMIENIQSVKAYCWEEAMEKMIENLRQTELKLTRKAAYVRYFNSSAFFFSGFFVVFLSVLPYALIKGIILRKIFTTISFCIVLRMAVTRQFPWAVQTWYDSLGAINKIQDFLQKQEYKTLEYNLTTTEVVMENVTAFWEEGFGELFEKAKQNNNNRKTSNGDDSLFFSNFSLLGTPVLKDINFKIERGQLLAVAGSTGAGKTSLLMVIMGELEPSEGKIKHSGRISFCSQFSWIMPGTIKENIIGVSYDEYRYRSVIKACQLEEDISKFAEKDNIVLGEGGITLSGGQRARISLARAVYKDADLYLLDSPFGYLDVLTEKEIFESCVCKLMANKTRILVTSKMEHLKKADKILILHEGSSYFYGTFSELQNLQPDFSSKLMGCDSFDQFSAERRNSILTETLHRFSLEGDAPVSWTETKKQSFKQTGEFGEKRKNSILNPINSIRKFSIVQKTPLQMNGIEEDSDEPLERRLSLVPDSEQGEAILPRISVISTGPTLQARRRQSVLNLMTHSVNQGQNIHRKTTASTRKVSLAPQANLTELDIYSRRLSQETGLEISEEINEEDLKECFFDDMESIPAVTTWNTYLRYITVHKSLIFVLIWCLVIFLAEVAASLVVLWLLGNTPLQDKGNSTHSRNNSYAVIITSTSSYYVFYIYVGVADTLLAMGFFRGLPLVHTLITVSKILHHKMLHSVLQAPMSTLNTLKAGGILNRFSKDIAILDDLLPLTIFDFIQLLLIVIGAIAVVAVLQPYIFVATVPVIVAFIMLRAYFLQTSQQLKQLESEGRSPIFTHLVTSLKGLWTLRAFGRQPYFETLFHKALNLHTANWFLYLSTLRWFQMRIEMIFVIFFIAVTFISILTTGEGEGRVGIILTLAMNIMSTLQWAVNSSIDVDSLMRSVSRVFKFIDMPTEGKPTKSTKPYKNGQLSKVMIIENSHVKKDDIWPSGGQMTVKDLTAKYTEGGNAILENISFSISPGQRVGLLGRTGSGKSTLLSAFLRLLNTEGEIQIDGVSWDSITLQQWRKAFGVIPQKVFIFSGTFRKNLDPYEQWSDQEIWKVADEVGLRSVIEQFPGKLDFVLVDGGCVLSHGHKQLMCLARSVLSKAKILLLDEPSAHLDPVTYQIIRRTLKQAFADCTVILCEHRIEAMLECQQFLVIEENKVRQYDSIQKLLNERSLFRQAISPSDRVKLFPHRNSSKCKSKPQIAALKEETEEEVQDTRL

The term pEC50 denotes the EC50 on a negative log10 scale, so that one unit is a factor of ten. High values mean a low EC50, low ones a high EC50. As usually defined, the Emax is the greatest response seen or fitted, relative to the assay's reference. In turn, `O=C(N[C@@H]1CC2(CCCC2)Oc2ccccc21)C1(c2ccc3c(c2)OC(F)(F)O3)CC1` [Example 78, 1-(2,2-difluoro-1,3-benzodioxol-5-yl)-N-[(4R)-3,4-dihydrospiro[chromene-2,1′-cyclopentan]-4-yl]cyclopropanecarboxamide] gave a pEC50 of 5.28 and an Emax of 95%.
As to `COC(=O)c1ccc([C@H]2C[C@H](NC(=O)C3(c4ccc5c(c4)OC(F)(F)O5)CC3)c3ccc(OC)cc3O2)nc1` (stereo in doubt) [Example 159, methyl rel-6-[(2R,4S)-4-({[1-(2,2-difluoro-1,3-benzodioxol-5-yl)cyclopropyl]carbonyl}amino)-7-methoxy-3,4-dihydro-2H-chromen-2-yl]pyridine-3-carboxylate], the pEC50 is 5.87 and the Emax was 92%.
The corresponding values for `COC(=O)c1ccc([C@H]2C[C@@H](NC(=O)C3(c4ccc5c(c4)OC(F)(F)O5)CC3)c3ccc(OC)cc3O2)nc1` (stereo in doubt) [Example 162, methyl rel-6-[(2R,4R)-4-({[1-(2,2-difluoro-1,3-benzodioxol-5-yl)cyclopropyl]carbonyl}amino)-7-methoxy-3,4-dihydro-2H-chromen-2-yl]pyridine-3-carboxylate] are 6.77 and 105%.
Take `O=C(O)C1CC(C2CC(NC(=O)C3(c4ccc5c(c4)OC(F)(F)O5)CC3)c3ccccc3O2)C1` (centres unmarked) [Example 152, 3-[4-({[1-(2,2-difluoro-1,3-benzodioxol-5-yl)cyclopropyl]carbonyl}amino)-3,4-dihydro-2H-chromen-2-yl]cyclobutanecarboxylic acid]: the pEC50 was 5.20 and the Emax was determined as 59%.
In turn, `COC(=O)c1ccc([C@H]2C[C@@H](NC(=O)C3(c4cc5c(cc4Br)OC(F)(F)O5)CC3)c3ccc(OC)cc3O2)cc1` [Example 202F, methyl 4-((2R,4R)-4-(1-(6-bromo-2,2-difluorobenzo[d][1,3]dioxol-5-yl)cyclopropanecarboxamido)-7-methoxychroman-2-yl)benzoate] gave a pEC50 of 7.40 and an Emax of 131%.
The corresponding values for `COc1ccc2c(c1)O[C@H](c1nc(C(=O)O)cs1)C[C@@H]2NC(=O)C1(c2ccc3c(c2)OC(F)(F)O3)CC1` (stereo in doubt) [Example 158, rel-2-[(2S,4S)-4-({[1-(2,2-difluoro-1,3-benzodioxol-5-yl)cyclopropyl]carbonyl}amino)-7-methoxy-3,4-dihydro-2H-chromen-2-yl]-1,3-thiazole-4-carboxylic acid] are 5.18 and 101%.
As for `O=C(NC1CC2(CNC2)Oc2cc(F)ccc21)C1(c2ccc3c(c2)OC(F)(F)O3)CC1` (centres unmarked) [Example 103, 1-(2,2-difluoro-1,3-benzodioxol-5-yl)-N-(7′-fluoro-3′,4′-dihydrospiro[azetidine-3,2′-chromen]-4′-yl)cyclopropanecarboxamide], the pEC50 was 5.07 and the Emax was 28%.
On to `COc1ccc2c(c1)O[C@@H](C(=O)NC1CCS(=O)(=O)CC1)C[C@H]2NC(=O)C1(c2ccc3c(c2)OC(F)(F)O3)CC1` (racemic) [Example 172, rac-(2R,4R)-4-({[1-(2,2-difluoro-1,3-benzodioxol-5-yl)cyclopropyl]carbonyl}amino)-N-(1,1-dioxidotetrahydro-2H-thiopyran-4-yl)-7-methoxy-3,4-dihydro-2H-chromene-2-carboxamide], for which the negative logarithm of the EC50 (pEC50) was 5.39 and the Emax worked out at 66%.
`COc1ccc2c(c1)O[C@@H](C(=O)N1CCN(CCO)CC1)C[C@H]2NC(=O)C1(c2ccc3c(c2)OC(F)(F)O3)CC1` (racemic) [Example 169, rac-1-(2,2-difluoro-1,3-benzodioxol-5-yl)-N-[(2R,4R)-2-{[4-(2-hydroxyethyl)piperazin-1-yl]carbonyl}-7-methoxy-3,4-dihydro-2H-chromen-4-yl]cyclopropanecarboxamide] showed a pEC50 of 5.31 and an Emax of 38%.
Turning to `C[C@@]1(CF)C[C@@H](NC(=O)C2(c3ccc4c(c3)OC(F)(F)O4)CC2)c2ccc(C(F)(F)F)cc2O1` [Example 80, 1-(2,2-difluoro-1,3-benzodioxol-5-yl)-N-[(2S,4R)-2-(fluoromethyl)-2-methyl-7-(trifluoromethyl)-3,4-dihydro-2H-chromen-4-yl]cyclopropanecarboxamide], the pEC50 is 5.81 and the Emax is 114%.
For `COc1ccc2c(c1)O[C@@H](C(=O)N1CCC(O)CC1)C[C@@H]2NC(=O)C1(c2ccc3c(c2)OC(F)(F)O3)CC1` (racemic) [Example 186, rac-1-(2,2-difluoro-1,3-benzodioxol-5-yl)-N-{(2R,4S)-2-[(4-hydroxypiperidin-1-yl)carbonyl]-7-methoxy-3,4-dihydro-2H-chromen-4-yl}cyclopropanecarboxamide] the same measures were 5.87 and 66%.
The corresponding values for `CCOC(=O)c1csc([C@@H]2C[C@H](NC(=O)C3(c4ccc5c(c4)OC(F)(F)O5)CC3)c3ccccc3O2)n1` (stereo in doubt) [Example 140, ethyl rel-2-[(2S,4S)-4-({[1-(2,2-difluoro-1,3-benzodioxol-5-yl)cyclopropyl]carbonyl}amino)-3,4-dihydro-2H-chromen-2-yl]-1,3-thiazole-4-carboxylate] are 5.64 and 53%.
For `COC(=O)[C@H]1C[C@H](NC(=O)C2(c3ccc4c(c3)OC(F)(F)O4)CC2)c2ccc(OC)cc2O1` (racemic) [Example 131, methyl rac-(2R,4S)-4-({[1-(2,2-difluoro-1,3-benzodioxol-5-yl)cyclopropyl]carbonyl}amino)-7-methoxy-3,4-dihydro-2H-chromene-2-carboxylate] the same measures were 5.44 and 70%.
The compound `COC(=O)c1ccc([C@@H]2C[C@H](NC(=O)C3(c4ccc5c(c4)OC(F)(F)O5)CC3)c3ccc(OC)cc3O2)nc1` (stereo in doubt) [Example 161, methyl rel-6-[(2S,4S)-4-({[1-(2,2-difluoro-1,3-benzodioxol-5-yl)cyclopropyl]carbonyl}amino)-7-methoxy-3,4-dihydro-2H-chromen-2-yl]pyridine-3-carboxylate] had a pEC50 of 5.65 and an Emax of 82%.
`Cc1ccc2c(c1)O[C@@H](c1cccc(C(=O)N3CC[C@@H](O)C3)c1)C[C@H]2NC(=O)C1(c2ccc3c(c2)OC(F)(F)O3)CC1` [Example 49, 1-(2,2-difluoro-1,3-benzodioxol-5-yl)-N-[(2R,4R)-2-(3-{[(3R)-3-hydroxypyrrolidin-1-yl]carbonyl}phenyl)-7-methyl-3,4-dihydro-2H-chromen-4-yl]cyclopropanecarboxamide]: the pEC50 was 6.01 and the Emax turned out to be 105%.
The corresponding values for `COc1ccc2c(c1)O[C@@H](c1cccnc1)C[C@@H]2NC(=O)C1(c2ccc3c(c2)OC(F)(F)O3)CC1` (racemic) [Example 22, rac-1-(2,2-difluoro-1,3-benzodioxol-5-yl)-N-[(2R,4S)-7-methoxy-2-(pyridin-3-yl)-3,4-dihydro-2H-chromen-4-yl]cyclopropanecarboxamide] are 5.75 and 109%.
Turning to `O=C(O)c1ccc2c(c1)OCCC2NC(=O)C1(c2ccc3c(c2)OC(F)(F)O3)CC1` (centres unmarked) [Example 42, 4-({[1-(2,2-difluoro-1,3-benzodioxol-5-yl)cyclopropyl]carbonyl}amino)-3,4-dihydro-2H-chromene-7-carboxylic acid], the pEC50 is no more than 4.70 and the Emax came to 5%.
The compound `COc1ccc2c(c1)O[C@@H](C(=O)N1CCN(CCO)CC1)C[C@@H]2NC(=O)C1(c2ccc3c(c2)OC(F)(F)O3)CC1` (racemic) [Example 187, rac-1-(2,2-difluoro-1,3-benzodioxol-5-yl)-N-[(2R,4S)-2-{[4-(2-hydroxyethyl)piperazin-1-yl]carbonyl}-7-methoxy-3,4-dihydro-2H-chromen-4-yl]cyclopropanecarboxamide] had a pEC50 of 5.71 and an Emax of 76%.
The corresponding values for `C[C@]1(C(F)F)C[C@@H](NC(=O)C2(c3ccc4c(c3)OC(F)(F)O4)CC2)c2ccccc2O1` [Example 81, 1-(2,2-difluoro-1,3-benzodioxol-5-yl)-N-[(2R,4R)-2-(difluoromethyl)-2-methyl-3,4-dihydro-2H-chromen-4-yl]cyclopropanecarboxamide] are 5.35 and 98%.
In the case of `COC(=O)c1cccc([C@H]2C[C@@H](NC(=O)C3(c4ccc5c(c4)OC(F)(F)O5)CC3)c3cc(C)ccc3O2)c1` [Example 11, methyl 3-[(2R,4R)-4-({[1-(2,2-difluoro-1,3-benzodioxol-5-yl)cyclopropyl]carbonyl}amino)-6-methyl-3,4-dihydro-2H-chromen-2-yl]benzoate], the pEC50 is 6.04 and the Emax was determined as 102%.
The corresponding values for `COC(=O)c1cccc([C@H]2C[C@@H](NC(=O)C3(c4ccc5c(c4)OC(F)(F)O5)CC3)c3cccnc3O2)c1` (racemic) [Example 33, rac-methyl 3-[(2R,4R)-4-({[1-(2,2-difluoro-1,3-benzodioxol-5-yl)cyclopropyl]carbonyl}amino)-3,4-dihydro-2H-pyrano[2,3-b]pyridin-2-yl]benzoate] are 5.12 and 38%.
The compound `CS(=O)(=O)NC(=O)c1ccc([C@H]2C[C@@H](NC(=O)C3(c4ccc5c(c4)OC(F)(F)O5)CC3)c3ccc(OC(F)F)cc3O2)cc1` [Example 203, 4-[(2R,4R)-4-({[1-(2,2-difluoro-1,3-benzodioxol-5-yl)cyclopropyl]carbonyl}amino)-7-(difluoromethoxy)-3,4-dihydro-2H-chromen-2-yl]-N-(methylsulfonyl)benzamide] showed a pEC50 of 6.16 and an Emax of 157%.
